In PubChem BioAssay (NCI):
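1) Cells in 96-well plates. 2) Compound, 48 h, 5 concentrations. 3) Linear interpolation between surrounding doses. 4) Unreached endpoint = highest concentration. GI50 is the concentration that inhibits growth by half. Definition used: TGI = concentration required for complete inhibition of growth.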

Key:
Experiment in all cases: NCI anticancer screen, dose series, 48 h
NCI-H23 lung = system: NCI-H23 lung
TK-10 renal = system: TK-10 renal
OVCAR-3 ovarian = system: OVCAR-3 ovarian
SK-OV-3 ovarian = system: SK-OV-3 ovarian
NCI-H460 lung = system: NCI-H460 lung
MOLT-4 leukemia = system: MOLT-4 leukemia
NCI-H226 lung = system: NCI-H226 lung
UACC-62 melanoma = system: UACC-62 melanoma
SNB-19 CNS = system: SNB-19 CNS
SR leukemia = system: SR leukemia

C[C@@H](C1CC[C@H]2[C@@H]3[C@@H]4O[C@@H]4[C@@]4(O)CC=CC(=O)[C@]4(C)[C@H]3C[C@H](O)[C@]12C)[C@H]1C[C@]2(C)O[C@]2(C)C(=O)O1 (some centres undefined)
TGI (NCI-H23 lung): > 100 µM
TGI (TK-10 renal): > 100 µM
TGI (OVCAR-3 ovarian): > 100 µM
TGI (SK-OV-3 ovarian): > 100 µM
TGI (NCI-H460 lung): > 100 µM
TGI (MOLT-4 leukemia): > 100 µM
TGI (NCI-H226 lung): > 100 µM
TGI (UACC-62 melanoma): > 100 µM
TGI (SNB-19 CNS): > 100 µM

OCC1NC(COC2OC(CO)C(O)C(O)C2O)C(O)C(O)C1O (centres undefined)
TGI (NCI-H23 lung): > 100 µM
TGI (TK-10 renal): > 100 µM
TGI (OVCAR-3 ovarian): > 100 µM
TGI (NCI-H460 lung): > 100 µM
TGI (MOLT-4 leukemia): > 100 µM
TGI (NCI-H226 lung): > 100 µM
TGI (UACC-62 melanoma): > 100 µM
TGI (SNB-19 CNS): > 100 µM
TGI (SR leukemia): > 100 µM

Nc1nc(=O)n(C2CC(O)C(CO)O2)cc1F (centres undefined)
GI50 (NCI-H23 lung): < 0.0332 µM
TGI (NCI-H23 lung): > 28.5 µM
GI50 (TK-10 renal): > 100 µM
TGI (TK-10 renal): > 100 µM
TGI (OVCAR-3 ovarian): > 100 µM
GI50 (SK-OV-3 ovarian): > 100 µM
TGI (SK-OV-3 ovarian): > 100 µM
GI50 (NCI-H460 lung): 0.00231 µM
TGI (NCI-H460 lung): > 100 µM
GI50 (MOLT-4 leukemia): 0.00502 µM
TGI (NCI-H226 lung): > 100 µM
GI50 (UACC-62 melanoma): < 0.0473 µM
TGI (UACC-62 melanoma): > 100 µM
GI50 (SR leukemia): > 100 µM
TGI (SR leukemia): > 100 µM

CNC(=O)c1cc(Oc2ccc3nc(NC(=O)Nc4ccc(CN5CCOCC5)c(C(F)(F)F)c4)sc3c2)ccn1
GI50 (NCI-H23 lung): 1.7 µM
TGI (NCI-H23 lung): 4.22 µM
GI50 (TK-10 renal): 4.45 µM
TGI (TK-10 renal): 14.7 µM
GI50 (OVCAR-3 ovarian): 1.79 µM
TGI (OVCAR-3 ovarian): 4.16 µM
GI50 (SK-OV-3 ovarian): 2.18 µM
TGI (SK-OV-3 ovarian): 4.81 µM
GI50 (NCI-H460 lung): 2.01 µM
TGI (NCI-H460 lung): 4.33 µM
GI50 (MOLT-4 leukemia): 2.57 µM
TGI (MOLT-4 leukemia): > 100 µM
GI50 (NCI-H226 lung): 1.73 µM
TGI (NCI-H226 lung): 4.3 µM
GI50 (UACC-62 melanoma): 1.44 µM
TGI (UACC-62 melanoma): 4.58 µM
GI50 (SNB-19 CNS): 3.82 µM
TGI (SNB-19 CNS): 16.4 µM

CC(=O)OC1C[C@H]2C(OC(=O)c3ccccc3)C3C4(OC(C)=O)COC4C[C@H](OC(C)=O)[C@@]3(C)C(OC(C)=O)[C@H](OC(C)=O)C(=C1C)C2(C)C (some centres undefined)
TGI (NCI-H23 lung): > 100 µM
TGI (TK-10 renal): > 100 µM
TGI (OVCAR-3 ovarian): > 100 µM
TGI (SK-OV-3 ovarian): > 100 µM
TGI (NCI-H460 lung): > 100 µM
TGI (MOLT-4 leukemia): > 100 µM
TGI (NCI-H226 lung): > 100 µM
TGI (UACC-62 melanoma): > 100 µM
TGI (SNB-19 CNS): > 100 µM

COC(=O)c1cc(-c2ccc3ccccc3c2)[nH]c(=O)c1C#N
TGI (NCI-H23 lung): > 100 µM
TGI (TK-10 renal): > 100 µM
TGI (OVCAR-3 ovarian): > 100 µM
TGI (SK-OV-3 ovarian): > 100 µM
TGI (NCI-H460 lung): > 100 µM
TGI (NCI-H226 lung): > 100 µM
TGI (UACC-62 melanoma): > 100 µM
TGI (SNB-19 CNS): > 100 µM
TGI (SR leukemia): > 100 µM

NC1=NN(c2ccccc2)C(=O)C1C(=O)C(=O)Nc1ccc(Cl)cc1 (centres undefined)
TGI (NCI-H23 lung): > 100 µM
TGI (TK-10 renal): > 100 µM
TGI (OVCAR-3 ovarian): > 100 µM
TGI (SK-OV-3 ovarian): > 100 µM
TGI (NCI-H460 lung): > 100 µM
TGI (MOLT-4 leukemia): > 100 µM
TGI (NCI-H226 lung): > 100 µM
TGI (UACC-62 melanoma): > 100 µM
TGI (SR leukemia): > 100 µM

CC(C)C[C@H](CC(=O)O)C(=O)N[C@@H](Cc1c[nH]c2ccccc12)C(=O)N[C@@H](C)c1ccccc1
GI50 (NCI-H23 lung): > 25 µM
TGI (NCI-H23 lung): > 25 µM
GI50 (TK-10 renal): > 25 µM
TGI (TK-10 renal): > 25 µM
GI50 (OVCAR-3 ovarian): > 25 µM
TGI (OVCAR-3 ovarian): > 25 µM
GI50 (SK-OV-3 ovarian): > 25 µM
TGI (SK-OV-3 ovarian): > 25 µM
GI50 (NCI-H460 lung): > 25 µM
TGI (NCI-H460 lung): > 25 µM
GI50 (MOLT-4 leukemia): > 25 µM
TGI (MOLT-4 leukemia): > 25 µM
GI50 (NCI-H226 lung): > 25 µM
TGI (NCI-H226 lung): > 25 µM
GI50 (UACC-62 melanoma): > 25 µM
TGI (UACC-62 melanoma): > 25 µM
GI50 (SNB-19 CNS): > 25 µM
TGI (SNB-19 CNS): > 25 µM

COc1ccc(C(c2ccccc2C(=O)O)c2ccc(OC)c3ccccc23)c2ccccc12
TGI (TK-10 renal): 45.3 µM
TGI (OVCAR-3 ovarian): 26.6 µM
TGI (SK-OV-3 ovarian): 45.1 µM
TGI (MOLT-4 leukemia): 66 µM
TGI (NCI-H226 lung): 63.5 µM
TGI (UACC-62 melanoma): 16.4 µM
TGI (SNB-19 CNS): 25.4 µM

COc1ccccc1-n1cnc(N)c1C(=O)c1cc(OC)c(OC)c(OC)c1
GI50 (NCI-H23 lung): 9.5 µM
TGI (NCI-H23 lung): > 100 µM
GI50 (TK-10 renal): 5.21 µM
TGI (TK-10 renal): > 100 µM
GI50 (OVCAR-3 ovarian): 3.34 µM
TGI (OVCAR-3 ovarian): 19.3 µM
GI50 (NCI-H460 lung): 3.47 µM
TGI (NCI-H460 lung): > 100 µM
GI50 (MOLT-4 leukemia): 4.82 µM
TGI (MOLT-4 leukemia): > 100 µM
GI50 (NCI-H226 lung): 4.34 µM
TGI (NCI-H226 lung): > 100 µM
GI50 (UACC-62 melanoma): 1.88 µM
TGI (UACC-62 melanoma): > 100 µM
GI50 (SNB-19 CNS): 4 µM
TGI (SNB-19 CNS): > 100 µM
GI50 (SR leukemia): 1.92 µM
TGI (SR leukemia): > 100 µM

COc1ccc2[nH]c(Cl)c(/C=C3/C(=O)Nc4ccccc43)c2c1
GI50 (NCI-H23 lung): 0.219 µM
TGI (NCI-H23 lung): 0.688 µM
GI50 (TK-10 renal): 1.06 µM
TGI (TK-10 renal): 8.74 µM
GI50 (OVCAR-3 ovarian): 0.537 µM
TGI (OVCAR-3 ovarian): 1.07 µM
GI50 (SK-OV-3 ovarian): 0.865 µM
TGI (SK-OV-3 ovarian): 16.9 µM
GI50 (NCI-H460 lung): 1.25 µM
TGI (NCI-H460 lung): > 34.8 µM
GI50 (NCI-H226 lung): 0.782 µM
TGI (NCI-H226 lung): 19.2 µM
GI50 (UACC-62 melanoma): 1.11 µM
TGI (UACC-62 melanoma): 2.51 µM
GI50 (SNB-19 CNS): 0.852 µM

O=S(=O)(C1=CC(S(=O)(=O)c2ccccc2)COC1)c1ccccc1 (centres undefined)
TGI (NCI-H23 lung): > 100 µM
TGI (TK-10 renal): > 100 µM
TGI (OVCAR-3 ovarian): > 100 µM
TGI (SK-OV-3 ovarian): > 100 µM
TGI (NCI-H460 lung): > 100 µM
TGI (MOLT-4 leukemia): > 100 µM
TGI (UACC-62 melanoma): > 100 µM
TGI (SNB-19 CNS): > 100 µM
TGI (SR leukemia): > 100 µM

O=C1NC(=O)C(C(=O)C(=O)Nc2cc(Cl)ccc2Cl)C(=O)N1
TGI (NCI-H23 lung): > 100 µM
TGI (TK-10 renal): > 100 µM
TGI (OVCAR-3 ovarian): > 100 µM
TGI (SK-OV-3 ovarian): > 100 µM
TGI (NCI-H460 lung): > 100 µM
TGI (MOLT-4 leukemia): > 100 µM
TGI (UACC-62 melanoma): > 100 µM
TGI (SNB-19 CNS): > 100 µM

O=C(Nc1ccc(OS(=O)(=O)c2ccc(F)cc2)cc1)C12CC3CC(CC(C3)C1)C2
GI50 (NCI-H23 lung): 10.1 µM
TGI (NCI-H23 lung): > 100 µM
GI50 (TK-10 renal): 21.5 µM
TGI (TK-10 renal): 62.6 µM
GI50 (OVCAR-3 ovarian): 8.64 µM
TGI (OVCAR-3 ovarian): 46.3 µM
GI50 (SK-OV-3 ovarian): 10.3 µM
TGI (SK-OV-3 ovarian): 47.3 µM
GI50 (NCI-H460 lung): 8.09 µM
TGI (NCI-H460 lung): > 100 µM
GI50 (NCI-H226 lung): 15 µM
TGI (NCI-H226 lung): > 79.3 µM
GI50 (UACC-62 melanoma): 6.44 µM
TGI (UACC-62 melanoma): > 65 µM
GI50 (SNB-19 CNS): 15.9 µM
TGI (SNB-19 CNS): 74.4 µM
GI50 (SR leukemia): 2.03 µM
TGI (SR leukemia): > 100 µM

C/C=C1/CN2CCC34C(=C(C(=O)OC)C1CC23)Nc1ccc(O)cc14 (centres undefined)
TGI (NCI-H23 lung): > 100 µM
TGI (TK-10 renal): > 100 µM
TGI (OVCAR-3 ovarian): > 100 µM
TGI (SK-OV-3 ovarian): > 100 µM
TGI (NCI-H460 lung): > 100 µM
TGI (MOLT-4 leukemia): > 100 µM
TGI (NCI-H226 lung): > 100 µM
TGI (UACC-62 melanoma): > 100 µM
TGI (SNB-19 CNS): > 100 µM

Cc1cc(S(=O)(=O)/N=C(\N)Nc2cccc(O)c2)c(SCc2ccccc2)cc1Cl
GI50 (TK-10 renal): 21.2 µM
TGI (TK-10 renal): 49.5 µM
GI50 (OVCAR-3 ovarian): 10.3 µM
TGI (OVCAR-3 ovarian): 26.2 µM
GI50 (SK-OV-3 ovarian): 19.1 µM
TGI (SK-OV-3 ovarian): 37.9 µM
GI50 (MOLT-4 leukemia): 9.06 µM
TGI (MOLT-4 leukemia): > 100 µM
GI50 (NCI-H226 lung): 24 µM
TGI (NCI-H226 lung): 62.3 µM
GI50 (UACC-62 melanoma): 14.1 µM
TGI (UACC-62 melanoma): 30.2 µM
GI50 (SNB-19 CNS): 20.6 µM
TGI (SNB-19 CNS): 58.9 µM
GI50 (SR leukemia): 16.2 µM
TGI (SR leukemia): > 100 µM

c1ccc2c(c1)[nH]c1cnc3c4ncccc4[nH]c3c12
TGI (NCI-H23 lung): > 100 µM
TGI (TK-10 renal): > 100 µM
TGI (OVCAR-3 ovarian): > 100 µM
TGI (SK-OV-3 ovarian): > 100 µM
TGI (NCI-H460 lung): > 100 µM
TGI (MOLT-4 leukemia): 97.6 µM
TGI (NCI-H226 lung): > 100 µM
TGI (UACC-62 melanoma): > 100 µM
TGI (SNB-19 CNS): > 100 µM

O=C1C=CC2(CCCCCCC2=O)CC1 (centres undefined)
TGI (TK-10 renal): > 100 µM
TGI (OVCAR-3 ovarian): > 100 µM
TGI (SK-OV-3 ovarian): > 100 µM
TGI (NCI-H460 lung): > 100 µM
TGI (MOLT-4 leukemia): > 100 µM
TGI (NCI-H226 lung): > 100 µM
TGI (UACC-62 melanoma): > 100 µM
TGI (SNB-19 CNS): > 100 µM
TGI (SR leukemia): > 100 µM
